Laboratory results taken from patent US20250177421A1, “METHOD FOR PREVENTING OR TREATING HEARING LOSS” (MACKAY MEDICAL COLLEGE, priority 2022, published 2025).

What was measured:
[1] = set-up: species or system mice; conditions: mouse, in vivo
Procedure: (§1) The used procedures followed the protocol reported by Wu et al.^[3]. Inositol hexaphosphate (IP6) obtained from Sigma (USA) was dissolved in ddH2O, and the doses given to the experimental mice intraperitoneally were 40 mg/kg and 80 mg/kg (100 μL of IP6). […] The mice of the control group received only phosphate-buffered saline (PBS, 100 μL).

[2] = system: cisplatin-injected mice; assay: Loss of outer hair cells (OHCs) count in cochlear tissues, cisplatin-induced SNHL in mice; type: in vivo
Procedure: as §1
Experimental mice were anesthetized, and their cochlear tissues were isolated and dissected. For whole-mount dissection, the protocol detailed by Neal et al. was followed^[5]. In brief, the cochlea was decalcified for 1 hour using a decalcification solution purchased from Apex Engineering (Aurora, IL, USA). The excess temporal bone around the cochlea was trimmed, and the cochlea was bisected along the midmodiolar plane and then submerged in phosphate buffered saline (PBS). A series of cuts through the modiolus separated the half-turns from one another. […]
For the loss of OHCs counts, hair cells (HCs) were counterstained with phalloidin, Myo7A and DAPI stainings. […] The images at three randomly-selected regions (300 μm length) in the apical, middle, and basal cochlear turns were acquired by using the same apparatus, and the loss of OHCs was manually counted. Average loss of OHCs was then calculated in apex, middle and base regions, respectively^[6]. Fluorescent images were taken with a Leica SP8 confocal fluorescence microscope. […]

[3] = system: cisplatin-injected mice; assay: Auditory brainstem response (ABR) hearing threshold, cisplatin-induced SNHL in mice; type: in vivo; conditions: cisplatin-injected mice (3 mg/kg IP, 5 days) with IP6 40 or 80 mg/kg IP; measured one week later
[4] = system: aging mice; assay: ABR hearing threshold, age-related hearing loss (ARHL) mouse model; type: in vivo; conditions: IP6 drink group (2% IP6 in drinking water for 10 months), 12-month-old mice
[5] = system: 12-month-old C57BL/6J mice; assay: Loss of OHCs and IHCs in cochlear tissues (immunohistochemical staining), ARHL mouse model; type: in vivo; conditions: 12-month-old mice
[6] = system: mouse cochlear tissues; assay: NanoString neuropathology gene expression analysis of cochlear tissues; type: in vivo, mice
Procedure: Total mRNA was extracted from mouse cochlear tissues as per the protocol described in previous studies^[10, 11]. The expression profile of neuropathological genes was analyzed using a NanoString mouse neuropathology panel (NanoString Technologies, Seattle, WA, USA), which includes genes involved in neural cell types and neuropathological processes^[12, 13]. All analyses of genes or pathways scores were performed in accordance with the user manual of the nCounter Advanced Analysis Software and were described in detail in previous studies^[10, 11]. Cold Spring Biotech in Taiwan was responsible for performing the NanoString gene expression analysis and bioinformatics analyses.

[7] = system: kanamycin/furosemide-injected mice; assay: ABR hearing threshold, kanamycin/furosemide-induced SNHL in mice; type: in vivo; conditions: IP6 80 mg/kg or fucoxanthin 60 mg/kg IP for 5 consecutive days
Procedure: For the kanamycin-induced SNHL in mice, the schematic protocol for the dosing and timing of kanamycin, furosemide, IP6 and/or fucoxanthin was presented in FIG. 1B. Kanamycin (Sigma Aldrich, USA) was dissolved in PBS, and kanamycin (1 mg/g) and furosemide (0.1 mg/g, Sigma Aldrich, USA) were injected as a single dose on the first day. Specifically, furosemide was intraperitoneally injected within 30 min after kanamycin was injected subcutaneously (SC). One hour later, IP6 and/or fucoxanthin was intraperitoneally injected for 5 consecutive days. The ABR of mice was measured to evaluate their hearing threshold. In brief, measurements were performed on the scalps of mice under anesthesia by using subdermal needle electrodes placed at the vertex, below the pinna of the left ear (as a reference measurement), and below the contralateral ear (ground). The sound stimuli included clicks ([…]; 4, 8, and 12 kHz). The devices used for ABR measurement were specifically designed for animal experiments (BIOPAC System, USA). […] The ABR threshold was measured through detection of the presence of V waves. […] One week later, the hearing threshold of all groups of mice was measured using ABR instrument. […]

[8] = system: kanamycin/furosemide-injected mice; assay: Loss of OHCs in cochlear tissues (immunohistochemical staining), kanamycin/furosemide-induced SNHL in mice; type: in vivo; conditions: IP6 80 mg/kg IP for 5 days in kanamycin/furosemide-injected mice
Procedure: For the kanamycin-induced SNHL in mice, the schematic protocol for the dosing and timing of kanamycin, furosemide, IP6 and/or fucoxanthin was presented in FIG. 1B. Kanamycin (Sigma Aldrich, USA) was dissolved in PBS, and kanamycin (1 mg/g) and furosemide (0.1 mg/g, Sigma Aldrich, USA) were injected as a single dose on the first day. Specifically, furosemide was intraperitoneally injected within 30 min after kanamycin was injected subcutaneously (SC). One hour later, IP6 and/or fucoxanthin was intraperitoneally injected for 5 consecutive days. Experimental mice were anesthetized, and their cochlear tissues were isolated and dissected. For whole-mount dissection, the protocol detailed by Neal et al. was followed^[5]. In brief, the cochlea was decalcified for 1 hour using a decalcification solution purchased from Apex Engineering (Aurora, IL, USA). […] The images at three randomly-selected regions (300 μm length) in the apical, middle, and basal cochlear turns were acquired by using the same apparatus, and the loss of OHCs was manually counted. Average loss of OHCs was then calculated in apex, middle and base regions, respectively^[6]. Fluorescent images were taken with a Leica SP8 confocal fluorescence microscope. […] One week later, the hearing threshold of all groups of mice was measured using ABR instrument. […]

[9] = 2% IP6 through drinking water for 10 months
[10] = IP6 80 mg/kg IP three days per week for 10 months

N.N.[Cl][Pt][Cl] [cisplatin, reference compound]
serum alanine aminotransferase (ALT) [1]: no difference | serum aspartate aminotransferase (AST) [1]: no difference | serum total bilirubin [1]: no difference | loss of OHCs (Myo7A+) in the apex, middle, and base regions ([2]; cisplatin 3 mg/kg IP once per day for 5 days, compared with the control group): significant loss

O=P(O)(O)O[C@H]1[C@H](OP(=O)(O)O)[C@@H](OP(=O)(O)O)[C@H](OP(=O)(O)O)[C@@H](OP(=O)(O)O)[C@H]1OP(=O)(O)O [IP6, inositol hexaphosphate]
hearing threshold (ABR) after IP6 treatment [3]: 20 to 30 db | hearing function at the frequency of 12 kHz compared with the control group [4]: significantly improved | loss of IHCs (Myo7A+) in the base regions [5, 9]: moderately mitigated | loss of OHCs (Myo7A+) in the apex, middle, and base regions [5, 9]: moderately mitigated | loss of IHCs (Myo7A+) in the base regions [5, 10]: moderately mitigated | loss of OHCs (Myo7A+) in the apex, middle, and base regions [5, 10]: moderately mitigated | serum alanine aminotransferase (ALT) [1]: no difference | serum aspartate aminotransferase (AST) [1]: no difference | serum total bilirubin [1]: no difference | carbohydrate metabolism: mRNA levels of Akt3, Slc1a1, and Slc1a2 ([6]; IP6 treatment): upregulated | lipid metabolism: mRNA levels of Cers6, Dgkb, Dgke, B4galt6, and Pla2g4c ([6]; IP6 treatment, P<0.05): upregulated | microglia gene score: mRNA levels of Amigo1, Atp6v1a, and Ap3m2 ([6]; after IP6 treatment (80 mg/kg), kanamycin/furosemide-injected mice, P<0.05): significantly upregulated | endothelial cell gene score: mRNA levels of Nrxn1 and Prkcb ([6]; after IP6 treatment (80 mg/kg), Nrxn1 P<0.01, Prkcb P<0.05): significantly upregulated | neuron score genes (Plcb4, Cacna1a, Calb1, Hen1, Cur1, Arhgap44, Gria4, Scn1a, Grik2, Cntnap1, Shank2, Lrrc4, Rab3a, Nrxn1, Adora1, Pak1, Frmpd4, Scn2a1, Dagla, Atcay) ([6]; after IP6 treatment (80 mg/kg), P<0.01): significantly upregulated | myelination gene score: mRNA levels of Cntnap1, Scn2a1, and Amigo1 ([6]; after IP6 treatment, Cntnap1 P<0.01, Scn2a1 and Amigo1 P<0.05): significantly upregulated | vesicle trafficking gene scores: mRNA levels of Cacna1a, Calb1, Gabrb2, Syt4, Cnr1, Gria4, Grik2, Rims1, Cacnb4, Stx1b, Shank2, Fgf14, Syt13, Rab3a, Ncam1, Nrxn1, Adora1, Nova1, Gabra1, Rit2 ([6]; after IP6 treatment, P<0.01): significantly upregulated | transcriptional patterns of astrocytes, endothelial cells, microglia, and neurons ([6]; kanamycin/furosemide-injected mice, 80 mg/kg IP6): reversed | hearing threshold (ABR) of kanamycin/furosemide-injected mice [7]: significant reduction | loss of OHCs (Myo7A+) in the apex, middle and base regions of the cochlear tissues [8]: significantly reduced | loss of OHCs (Myo7A+) in the apex, middle, and base regions ([2]; IP6 80 mg/kg IP 2 h before cisplatin 3 mg/kg IP, once per day for 5 days, compared with cisplatin-injected mice without IP6): significantly reduced

fucoxanthin
hearing threshold (ABR) of kanamycin/furosemide-injected mice [7]: significant reduction
